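Assay format: 96-well plates, 48-hour exposure. TGI denotes the concentration required for complete inhibition of growth.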
Assays:
Experiment in all cases: DTP human tumour cell line panel, 48 h
[1] = test system: 786-0 renal
[2] = test system: A498 renal
[3] = test system: A549 NSCLC
[4] = test system: ACHN renal
[5] = test system: BT-549 breast
[6] = test system: CAKI-1 renal
[7] = test system: CCRF-CEM leukemia
[8] = test system: COLO 205 colon
[9] = test system: DU-145 prostate
[10] = test system: EKVX NSCLC
[11] = test system: HCC-2998 colon
[12] = test system: HCT-116 colon
[13] = test system: HCT-15 colon
[14] = test system: HL-60(TB) leukemia
[15] = test system: HOP-62 NSCLC
[16] = test system: HOP-92 NSCLC
[17] = test system: HS 578T breast
[18] = test system: HT29 colon
[19] = test system: IGROV1 ovarian
[20] = test system: K-562 leukemia
[21] = test system: KM12 colon
[22] = test system: LOX IMVI melanoma
[23] = test system: M14 melanoma
[24] = test system: MALME-3M melanoma
[25] = test system: MCF7 breast
[26] = test system: MDA-MB-231 breast
[27] = test system: MDA-MB-435
[28] = test system: MDA-N
[29] = test system: MOLT-4 leukemia
[30] = test system: NCI-H226 lung
[31] = test system: NCI-H23 lung
[32] = test system: NCI-H460 lung
[33] = test system: NCI-H522 lung
[34] = test system: NCI/ADR-RES ovarian
[35] = test system: OVCAR-3 ovarian
[36] = test system: OVCAR-4 ovarian
[37] = test system: OVCAR-5 ovarian
[38] = test system: OVCAR-8 ovarian
[39] = test system: PC-3 prostate
[40] = test system: RPMI-8226 leukemia
[41] = test system: RXF 393 renal
[42] = test system: SF-268 CNS
[43] = test system: SF-295 CNS
[44] = test system: SF-539 CNS
[45] = test system: SK-MEL-2 melanoma
[46] = test system: SK-MEL-28 melanoma
[47] = test system: SK-MEL-5 melanoma
[48] = test system: SK-OV-3 ovarian
[49] = test system: SN12C renal
[50] = test system: SNB-19 CNS
[51] = test system: SNB-75 CNS
[52] = test system: SW-620 colon
[53] = test system: T-47D breast
[54] = test system: TK-10 renal
[55] = test system: U251 CNS
[56] = test system: UACC-257 melanoma
[57] = test system: UACC-62 melanoma
[58] = test system: UO-31 renal
[59] = test system: SR leukemia

`Fc1cc(F)c(F)c(S)c1F` showed a TGI [1] of over 100 µM, a TGI [2] of 33.2 µM and a TGI [3] of over 100 µM. The TGI [4] was over 100 µM, the TGI [5] was 52 µM and the TGI [6] was over 100 µM. The TGI [7] was over 100 µM, the TGI [8] was over 100 µM and the TGI [9] was over 100 µM. For the same molecule, the TGI [10] was 55.2 µM, the TGI [11] was over 100 µM and the TGI [12] was over 100 µM. For the same molecule, the TGI [13] was over 100 µM, the TGI [14] was over 100 µM and the TGI [15] was over 100 µM. The TGI [16] was over 100 µM, the TGI [17] was over 100 µM and the TGI [18] was over 100 µM. For the same molecule, the TGI [19] was over 100 µM, the TGI [20] was over 100 µM and the TGI [21] was over 100 µM. It also gave a TGI [22] of over 100 µM, a TGI [23] of over 100 µM and a TGI [24] of over 100 µM. The TGI [25] was over 100 µM, the TGI [26] was 44.8 µM and the TGI [27] was over 100 µM. It also gave a TGI [28] of over 100 µM, a TGI [29] of 66 µM and a TGI [30] of over 100 µM. It also gave a TGI [31] of over 100 µM, a TGI [32] of over 100 µM and a TGI [33] of 37.8 µM. For the same molecule, the TGI [34] was 38.6 µM, the TGI [35] was over 100 µM and the TGI [36] was over 100 µM. It also gave a TGI [37] of over 100 µM, a TGI [38] of over 100 µM and a TGI [39] of 42.2 µM. For the same molecule, the TGI [40] was over 100 µM, the TGI [41] was 54.8 µM and the TGI [42] was over 100 µM. It also gave a TGI [43] of over 100 µM, a TGI [44] of over 100 µM and a TGI [45] of over 100 µM. For the same molecule, the TGI [46] was over 100 µM, the TGI [47] was over 100 µM and the TGI [48] was over 100 µM. For the same molecule, the TGI [49] was 43.8 µM, the TGI [50] was over 100 µM and the TGI [51] was over 100 µM. The TGI [52] was over 100 µM, the TGI [53] was over 100 µM and the TGI [54] was over 100 µM. The TGI [55] was over 100 µM, the TGI [56] was over 100 µM and the TGI [57] was over 100 µM. It also gave a TGI [58] of over 100 µM.

`O=c1c2c3c(sc2nc2n1N=CN(c1ccccc1)C2)CCCC3` was tested, and the TGI [1] was over 100 µM, the TGI [2] was over 100 µM and the TGI [3] was over 100 µM. It also gave a TGI [4] of over 100 µM, a TGI [5] of over 100 µM and a TGI [6] of over 100 µM. It also gave a TGI [7] of over 100 µM, a TGI [8] of over 100 µM and a TGI [9] of over 100 µM. The TGI [10] was over 100 µM, the TGI [11] was over 100 µM and the TGI [12] was over 100 µM. The TGI [13] was over 100 µM, the TGI [15] was over 100 µM and the TGI [16] was over 100 µM. For the same molecule, the TGI [17] was over 100 µM, the TGI [18] was over 100 µM and the TGI [19] was over 100 µM. It also gave a TGI [20] of over 100 µM, a TGI [21] of over 100 µM and a TGI [22] of over 100 µM. For the same molecule, the TGI [23] was over 100 µM, the TGI [24] was over 100 µM and the TGI [25] was over 100 µM. The TGI [26] was over 100 µM, the TGI [27] was over 100 µM and the TGI [28] was over 100 µM. It also gave a TGI [29] of over 100 µM, a TGI [30] of over 100 µM and a TGI [31] of over 100 µM. The TGI [32] was over 100 µM, the TGI [33] was over 100 µM and the TGI [34] was over 100 µM. It also gave a TGI [35] of over 100 µM, a TGI [36] of over 100 µM and a TGI [37] of over 100 µM. The TGI [38] was over 100 µM, the TGI [39] was over 100 µM and the TGI [40] was over 100 µM. It also gave a TGI [41] of over 100 µM, a TGI [42] of over 100 µM and a TGI [43] of over 100 µM. For the same molecule, the TGI [45] was over 100 µM, the TGI [46] was over 100 µM and the TGI [47] was over 100 µM. It also gave a TGI [48] of over 100 µM, a TGI [49] of over 100 µM and a TGI [50] of over 100 µM. The TGI [51] was over 100 µM, the TGI [59] was over 100 µM and the TGI [52] was over 100 µM. For the same molecule, the TGI [53] was over 100 µM, the TGI [54] was over 100 µM and the TGI [55] was over 100 µM. The TGI [56] was over 100 µM, the TGI [57] was over 100 µM and the TGI [58] was over 100 µM.

From PubChem BioAssay (NCI)
